According to PMC6404347, “CHCHD4 confers metabolic vulnerabilities to tumour cells through its control of the mitochondrial respiratory chain” (Cancer & Metabolism, 2019):

Biological target: T1, mitochondrial respiratory chain complex I (CI) (Bos taurus, UniProt P03887+P17694+P42026)
T1 construct: gene NDUFS2; whole CI enzyme immunocaptured from purified bovine heart mitochondria
Experiment: MitoTox Complex I OXPHOS Activity Microplate Assay (immunocaptured enzyme), dose-response
Format: biochemical

T1 sequence (P17694 34-463): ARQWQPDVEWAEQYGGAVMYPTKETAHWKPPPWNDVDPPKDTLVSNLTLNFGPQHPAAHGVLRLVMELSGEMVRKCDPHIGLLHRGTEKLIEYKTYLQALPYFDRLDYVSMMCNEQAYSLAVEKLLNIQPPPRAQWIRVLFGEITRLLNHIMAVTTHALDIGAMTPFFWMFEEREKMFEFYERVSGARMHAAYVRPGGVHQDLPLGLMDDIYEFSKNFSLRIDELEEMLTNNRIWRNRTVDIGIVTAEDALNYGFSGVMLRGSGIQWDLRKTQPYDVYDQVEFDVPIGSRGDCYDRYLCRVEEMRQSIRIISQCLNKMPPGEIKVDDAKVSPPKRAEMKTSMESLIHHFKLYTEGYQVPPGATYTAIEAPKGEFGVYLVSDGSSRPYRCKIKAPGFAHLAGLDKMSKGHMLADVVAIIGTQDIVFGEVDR
T1 sequence (P42026 38-216): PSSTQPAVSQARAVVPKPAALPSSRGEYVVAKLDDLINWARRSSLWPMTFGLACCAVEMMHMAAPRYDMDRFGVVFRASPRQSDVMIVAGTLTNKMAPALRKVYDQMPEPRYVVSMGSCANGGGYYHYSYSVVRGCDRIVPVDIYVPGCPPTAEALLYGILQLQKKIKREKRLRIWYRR
T1 sequence (P03887 whole entry): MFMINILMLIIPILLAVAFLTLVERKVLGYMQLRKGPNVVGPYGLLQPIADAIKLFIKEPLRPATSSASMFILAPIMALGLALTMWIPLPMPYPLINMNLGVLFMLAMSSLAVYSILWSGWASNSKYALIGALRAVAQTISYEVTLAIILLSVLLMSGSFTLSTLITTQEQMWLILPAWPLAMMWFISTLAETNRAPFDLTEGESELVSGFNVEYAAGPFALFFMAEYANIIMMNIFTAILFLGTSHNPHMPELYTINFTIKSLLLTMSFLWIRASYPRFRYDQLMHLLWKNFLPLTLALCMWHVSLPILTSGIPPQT

In the case of `Cc1cc(-c2nc(-c3ccc(OC(F)(F)F)cc3)no2)nn1Cc1ccnc(N2CCN(C3CC3)CC2)c1` [BAY 87-2243], the IC50 is reported as roughly 0.5 µM.
